US9540343B2 (Gilead Sciences, Inc., priority 2011, dated 2017)

Assays:
HIV-IIIb = experiment: Test A: Antiviral assay in MT4 cells; type: cell-based, HIV-1; details: Human immunodeficiency virus 1, IIIB, MT4, 120 h, read-out: % inhibition at 2 μM, percent inhibition of virus-induced cell killing, from dose response curve at 2 uM drug; MT-4 cells infected with HIV-IIIb, 5 days, CellTiter-Glo
in vitro = details: human, uninfected MT-4 cells, CC50 (nM), same protocol as Test A, CellTiter-Glo
How it was run: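 Cytoprotection read-out: CellTiter-Glo chemiluminescence after 5 days at 37 °C of HIV-IIIb-infected MT-4 cells (m.o.i. 0.003) with compound in 10-point 3-fold dilutions, quadruplicate, 10% FBS. Cytotoxicity (CC50) measured identically without virus.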

Row | SMILES | inhibition at 2 µM (HIV-IIIb) [%] | CC50 at 5 days (in vitro) [nM]
1 | NC(=O)c1cc(-c2cccnc2[C@H](Cc2cc(F)cc(F)c2)NC(=O)Cn2nc(C(F)F)c3c2C(O)CCC3)ccc1F (stereo partly drawn) [Example 384, 5-(2-((1S)-1-(2-(3-(difluoromethyl)-7-hydroxy-4,5,6,7-tetrahydro-1H-indazol-1-yl)acetamido)-2-(3,5-difluorophenyl)ethyl)pyridin-3-yl)-2-fluorobenzamide] | 97 | > 53200
2 | Cc1cc(C(F)(F)F)nn1CC(=O)N[C@@H](Cc1cc(F)cc(F)c1)c1ncccc1-c1ccc(F)c(C(N)=O)c1 [Example 385, (S)-5-(2-(2-(3,5-difluorophenyl)-1-(2-(5-methyl-3-(trifluoromethyl)-1H-pyrazol-1-yl)acetamido)ethyl)pyridin-3-yl)-2-fluorobenzamide] | 40 | > 53200
3 | NC(=O)c1cc(-c2cccnc2[C@H](Cc2cc(F)cc(F)c2)NC(=O)Cn2nc(C(F)(F)F)c3c2CC(F)(F)CC3)ccc1F [Example 387, (S)-5-(2-(1-(2-(6,6-difluoro-3-(trifluoromethyl)-4,5,6,7-tetrahydro-1H-indazol-1-yl)acetamido)-2-(3,5-difluorophenyl)ethyl)pyridin-3-yl)-2-fluorobenzamide] | 61 | 21200
4 | CN1CCc2c(C(F)(F)F)nn(CC(=O)N[C@@H](Cc3cc(F)cc(F)c3)c3ncccc3-c3ccc(F)c(C(N)=O)c3)c2C1 [Example 388, (S)-5-(2-(2-(3,5-difluorophenyl)-1-(2-(6-methyl-3-(trifluoromethyl)-4,5,6,7-tetrahydro-1H-pyrazolo[3,4-c]pyridin-1-yl)acetamido)ethyl)pyridin-3-yl)-2-fluorobenzamide] | 54 | > 53200
5 | CC(=O)c1cn(CC(=O)N[C@@H](Cc2cc(F)cc(F)c2)c2ncccc2-c2ccc(F)c(C(N)=O)c2)nc1C(F)(F)F [Example 389B, (S)-5-(2-(1-(2-(4-acetyl-3-(trifluoromethyl)-1H-pyrazol-1-yl)acetamido)-2-(3,5-difluorophenyl)ethyl)pyridin-3-yl)-2-fluorobenzamide] | 2 | > 53200
6 | NC(=O)c1cc(-c2cccnc2C(Cc2cc(F)cc(F)c2)NC(=O)Cn2nc(C(F)F)c3c2C(F)(F)CCC3F)ccc1F (stereo not drawn) [Example 390, 5-(2-(1-(2-(3-(difluoromethyl)-4,7,7-trifluoro-4,5,6,7-tetrahydro-1H-indazol-1-yl)acetamido)-2-(3,5-difluorophenyl)ethyl)pyridin-3-yl)-2-fluorobenzamide] | 99 | 21600
7 | NC(=O)c1cc(-c2cccnc2[C@H](Cc2cc(F)cc(F)c2)NC(=O)Cn2nc(C(F)(F)F)c3c2C(O)CC3)ccc1F (stereo partly drawn) [Example 391, 5-(2-((1S)-2-(3,5-difluorophenyl)-1-(2-(6-hydroxy-3-(trifluoromethyl)-5,6-dihydrocyclopenta[c]pyrazol-1(4H)-yl)acetamido)ethyl)pyridin-3-yl)-2-fluorobenzamide] | 60 | 44800
8 | NC(=O)c1cc(-c2cccnc2C(Cc2cc(F)cc(F)c2)NC(=O)Cn2nc(C(F)F)c3c2C2CC2CC3)ccc1F (stereo not drawn) [Example 392, 5-(2-(1-(2-(3-(difluoromethyl)-5,5a,6,6a-tetrahydrocyclopropa[g]indazol-1(4H)-yl)acetamido)-2-(3,5-difluorophenyl)ethyl)pyridin-3-yl)-2-fluorobenzamide] | 105 | 19100
9 | CCCCNS(=O)(=O)c1ccc(-c2cccnc2[C@H](Cc2cc(F)cc(F)c2)NC(=O)Cn2nc(C(F)F)c3c2C(F)(F)C2CC32)cc1 (stereo partly drawn) [Example 393, (S)—N-(1-(3-(4-(N-butylsulfamoyl)phenyl)-pyridin-2-yl)-2-(3,5-difluorophenyl)ethyl)-2-(3-(difluoromethyl)-5,6-dihydro-4,5-(methano)-6,6-difluoro-cyclopenta[c]pyrazol-1(4H)-yl)acetamide] | 54 | 26100
10 | CC(=O)Nc1ccc(-c2cccnc2[C@H](Cc2cc(F)cc(F)c2)NC(=O)Cc2c[nH]c3ccc(F)cc23)cc1 [Example 394] | 14 | 30800
11 | O=C(Cc1c[nH]c2ccc(F)cc12)N[C@@H](Cc1cc(F)cc(F)c1)c1ncccc1-c1ccccc1Cl [Example 395, (S)—N-(1-(3-(2-chlorophenyl)pyridin-2-yl)-2-(3,5-difluorophenyl)ethyl)-2-(5-fluoro-1H-indol-3-yl)acetamide] | 41 | 11600
12 | O=C(Cc1c[nH]c2ccc(F)cc12)N[C@@H](Cc1cc(F)cc(F)c1)c1ncccc1-c1ccc(Cl)c(Cl)c1 [Example 396, (S)—N-(1-(3-(3,4-dichlorophenyl)pyridin-2-yl)-2-(3,5-difluorophenyl)ethyl)-2-(5-fluoro-1H-indol-3-yl)acetamide] | 39 | 10000
13 | NC(=O)c1cc(-c2cccnc2[C@H](Cc2cc(F)cc(F)c2)NC(=O)Cn2nc(C(F)F)c3c2C2CC(C2)C3=O)ccc1F [Example 397, (S)-5-(2-(2-(3,5-difluorophenyl)-1-(2-(4,5,6,7-tetrahydro-3-difluoromethyl-4-oxo-5,7-(methano)indazol-1-yl)acetamido)ethyl)pyridin-3-yl)-2-fluorobenzamide] | 26 | > 53200
14 | O=C(Cc1c[nH]c2ccc(F)cc12)N[C@@H](Cc1cc(F)cc(F)c1)c1ncccc1-c1ccccc1-c1ccccc1 [Example 398, (S)—N-(1-(3-(biphenyl-2-yl)pyridin-2-yl)-2-(3,5-difluorophenyl)ethyl)-2-(5-fluoro-1H-indol-3-yl)acetamide] | 2 | 9830
15 | O=C1Cc2cc(-c3cccnc3[C@H](Cc3cc(F)cc(F)c3)NC(=O)Cn3nc(C(F)F)c4c3C(F)(F)C3CC43)ccc2N1 (stereo partly drawn) [Example 400, (S)—N-(1-(3-(oxindole-5-yl)-pyridin-2-yl)-2-(3,5-difluorophenyl)ethyl)-2-(3-(difluoromethyl)-5,6-dihydro-4,5-(methano)-6,6-difluoro-cyclopenta[c]pyrazol-1(4H)-yl)acetamide] | 45 | 23300
16 | CN(C)CCNC(=O)c1cccc(-c2cccnc2[C@H](Cc2cc(F)cc(F)c2)NC(=O)Cn2nc(C(F)(F)F)c3c2CCCC3)c1 [Example 401C, (S)-3-(2-(2-(3,5-difluorophenyl)-1-(2-(3-(trifluoromethyl)-4,5,6,7-tetrahydro-1H-indazol-1-yl)acetamido)ethyl)pyridin-3-yl)-N-(2-(dimethylamino)ethyl)benzamide] | 87 | 9720
17 | O=C(Cc1c[nH]c2ccc(O)cc12)N[C@@H](Cc1cc(F)cc(F)c1)c1ncccc1-c1ccccc1 [Example 402, (S)—N-(2-(3,5-difluorophenyl)-1-(3-phenylpyridin-2-yl)ethyl)-2-(5-hydroxy-1H-indol-3-yl)acetamide] | 92 | 24800
18 | NC(=O)c1cc(-c2cccnc2[C@H](Cc2cc(F)cc(F)c2)NC(=O)Cn2nc(C=O)c3c2C2CCC3C2)ccc1F (stereo partly drawn) [Example 403, (S)-5-(2-(2-(3,5-difluorophenyl)-1-(2-(4,5,6,7-tetrahydro-3-formyl-4,7-(methano)indazol-1-yl)acetamido)ethyl)pyridin-3-yl)-2-fluorobenzamide] | 112 | 10500
